Values of other authors as cited in patent US12251395B2, “RNAS for complement inhibition” (Apellis Pharmaceuticals, Inc., priority 2019, dated 2025).
Bridges are numbered along the chain shown (N, C = ends). [ ]: non-standard residue; d: D form. Trp(5-F) = N[C@@H](Cc1c[nH]c2ccc(F)cc12)C(=O)O; Trp(5-Me) = Cc1ccc2[nH]cc(C[C@H](N)C(=O)O)c2c1; Trp(6-F) = N[C@@H](Cc1c[nH]c2cc(F)ccc12)C(=O)O; Bpa = N[C@@H](Cc1ccc(C(=O)c2ccccc2)cc1)C(=O)O; 1Nal = N[C@@H](Cc1cccc2ccccc12)C(=O)O; 2Nal = N[C@@H](Cc1ccc2ccccc2c1)C(=O)O; Igl = N[C@H](C(=O)O)C1Cc2ccccc2C1

test system: complement activation; conditions: relative to compstatin amidated at the C-terminus; published data

Point of comparison: “Ac-ICV(2-IgI)QDWGAHRCT-CONH2 (Ac-ICV[Igl]QDWGAHRCT-NH2; disulfide 2-12 (inferred)) [Ac-V42IgI/H9A]”, “Activity over corn statin” value 39xmore. Against it:
- Ac-ICV(1-Nal)QDWGAHRCT-COOH (Ac-ICV[1Nal]QDWGAHRCT-OH; disulfide 2-12 (inferred)) [Ac V4(1-Nal)/H9A -OH] — lower, 30xmore
- Ac-ICV(2-IgI)QDWGAHRCT-COOH (Ac-ICV[Igl]QDWGAHRCT-OH; disulfide 2-12 (inferred)) [Ac-V42IgI/H9A -OH] — lower, 37xmore
- Ac-ICV(2-Nal)QDWGAHRCT-CONH2 (Ac-ICV[2Nal]QDWGAHRCT-NH2; disulfide 2-12 (inferred)) [Ac-V4(2-Nal)/H9A] — higher, 99xmore
- Ac-ICV(2-Nal)QDWGAHRCT-COOH (Ac-ICV[2Nal]QDWGAHRCT-OH; disulfide 2-12 (inferred)) [Ac V4(2-Nal)/H9A -OH] — lower, 38xmore
- Ac-ICV(5-methyl-W)QDWGAHRCT-CONH2 (Ac-ICV[Trp(5-Me)]QDWGAHRCT-NH2; disulfide 2-12 (inferred)) [Ac-V4(5-MeW)/H9A] — higher, 67xmore
- Ac-ICV(5fW)QDWGAHRCT-CONH2 (Ac-ICV[Trp(5-F)]QDWGAHRCT-NH2; disulfide 2-12 (inferred)) [Ac-V4(5fW)/H9A] — lower, 31xmore
- Ac-ICV(Bpa)QDWGAHRCT-CONH2 (Ac-ICV[Bpa]QDWGAHRCT-NH2; disulfide 2-12 (inferred)) [Ac-V4(Bpa)/H9A] — higher, 86xmore
- Ac-ICV(Bpa)QDWGAHRCT-COOH (Ac-ICV[Bpa]QDWGAHRCT-OH; disulfide 2-12 (inferred)) [Ac-V4(Bpa)/H9A -OH] — higher, 49xmore
- Ac-ICVWQD(5fW)GAHRCT-CONH2 (Ac-ICVWQD[Trp(5-F)]GAHRCT-NH2; disulfide 2-12 (inferred)) [Ac-V4W/W7(5fW)/H9A] — higher, 121xmore
- Ac-ICVWQDWGAHRCT-CONH2 (Ac-ICVWQDWGAHRCT-NH2; disulfide 2-12 (inferred)) [Ac-V4W/H9A] — higher, 45xmore
- Ac-ICVWQDWGAHRCdT-COOH [Ac-V4W/H9A/T13dT -OH] — higher, 55xmore
- Ac-ICVYQDWGAHRCT-CONH2 [Ac-V4Y/H9A] — lower, 14xmore
- Ac-ICWQDWGHHRCT-NH2 (cysteine pairing not given here) [Ac-compstatin] — lower, 3xmore
- H-GICV(5fW)QD(5fW)GAHRCTN-COOH (H-GICV[Trp(5-F)]QD[Trp(5-F)]GAHRCTN-OH; disulfide 3-13 (inferred)) [G/V4(5f-W)/W7(5fW)/H9A+FN-OH] — higher, 112xmore
- H-GICV(6fW)QD(6fW)GAHRCTN-COOH (H-GICV[Trp(6-F)]QD[Trp(6-F)]GAHRCTN-OH; disulfide 3-13 (inferred)) [+G/V4(6fW)/W7(6fW)H9A+FN-OH] — higher, 126xmore

test system: complement activation; conditions: alternative pathway-mediated erythrocyte lysis assay (WO2004/026328); read-out: IC50 of compstatin

In the case of CC[C@H](C)[C@H](N)C(=O)N[C@H]1CSSC[C@@H](C(=O)N[C@H](C(N)=O)[C@@H](C)O)NC(=O)[C@H](CCCN=C(N)N)NC(=O)[C@H](Cc2cnc[nH]2)NC(=O)[C@H](Cc2cnc[nH]2)NC(=O)CNC(=O)[C@H](Cc2c[nH]c3ccccc23)NC(=O)[C@H](CC(=O)O)NC(=O)[C@H](CCC(N)=O)NC(=O)[C@H](C(C)C)NC(=O)[C@H](C(C)C)NC1=O [Compstatin, H-ICVVQDWGHHRCT-CONH2], the IC50 is given as 12 µM.
